Data taken from PMC4669708 (Cell Death & Disease, 2015).

Columns and labels:
Assay in all cases: c-ponatinib pulldown LC-MS/MS
Format in all cases: binding
HSPA9 = HSPA9 (Homo sapiens, UniProt P38646)
Outline: (§1)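 Whole cell lysate (10 mg) was first passed over immobilized c-ponatinib, and bound proteins were eluted. After reduction, alkylation and tryptic digestion, the peptides were analysed by LC-MS/MS. Finally, binding specificity was assigned by a combined P-value, with or without free-compound competition.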

MAPK11 = MAPK11 (Homo sapiens, UniProt Q15759)
Outline: as §1

RIPK1 = molecular target: T1, RIPK1 (Homo sapiens, UniProt Q13546)
T1 sequence (Q13546 1-671): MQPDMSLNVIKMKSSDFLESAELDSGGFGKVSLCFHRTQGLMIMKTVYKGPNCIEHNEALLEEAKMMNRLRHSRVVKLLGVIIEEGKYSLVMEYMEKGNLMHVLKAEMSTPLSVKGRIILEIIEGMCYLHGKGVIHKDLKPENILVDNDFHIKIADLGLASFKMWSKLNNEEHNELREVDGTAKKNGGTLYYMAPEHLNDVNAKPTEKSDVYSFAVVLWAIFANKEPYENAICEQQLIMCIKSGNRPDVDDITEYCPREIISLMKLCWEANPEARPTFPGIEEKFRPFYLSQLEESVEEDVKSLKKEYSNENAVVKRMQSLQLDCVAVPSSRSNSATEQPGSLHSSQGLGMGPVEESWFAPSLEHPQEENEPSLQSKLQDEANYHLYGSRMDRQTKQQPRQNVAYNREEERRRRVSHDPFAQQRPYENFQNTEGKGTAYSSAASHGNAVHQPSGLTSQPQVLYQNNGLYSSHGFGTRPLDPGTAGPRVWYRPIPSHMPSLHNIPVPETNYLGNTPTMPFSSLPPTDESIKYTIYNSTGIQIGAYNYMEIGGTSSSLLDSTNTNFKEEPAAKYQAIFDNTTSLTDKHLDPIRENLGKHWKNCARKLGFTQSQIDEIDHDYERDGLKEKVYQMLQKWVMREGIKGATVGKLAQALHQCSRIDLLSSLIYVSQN
Outline: as §1

TCP1 = TCP1 (Homo sapiens, UniProt P17987)
Outline: as §1

TPM4 = TPM4 (Homo sapiens, UniProt P67936)
Outline: as §1

UNC119 = UNC119 (Homo sapiens, UniProt Q13432)
Outline: as §1

YWHAZ = molecular target: T2, YWHAZ (Homo sapiens, UniProt P63104)
T2 sequence (P63104 1-245): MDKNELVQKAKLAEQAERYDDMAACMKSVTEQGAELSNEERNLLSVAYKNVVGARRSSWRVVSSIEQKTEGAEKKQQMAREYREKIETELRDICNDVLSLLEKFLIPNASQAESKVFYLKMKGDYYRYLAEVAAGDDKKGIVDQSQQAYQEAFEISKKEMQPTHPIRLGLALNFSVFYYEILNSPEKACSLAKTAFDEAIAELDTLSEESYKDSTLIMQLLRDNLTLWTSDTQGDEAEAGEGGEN
Outline: as §1

TCP1, sequence (P17987 whole entry): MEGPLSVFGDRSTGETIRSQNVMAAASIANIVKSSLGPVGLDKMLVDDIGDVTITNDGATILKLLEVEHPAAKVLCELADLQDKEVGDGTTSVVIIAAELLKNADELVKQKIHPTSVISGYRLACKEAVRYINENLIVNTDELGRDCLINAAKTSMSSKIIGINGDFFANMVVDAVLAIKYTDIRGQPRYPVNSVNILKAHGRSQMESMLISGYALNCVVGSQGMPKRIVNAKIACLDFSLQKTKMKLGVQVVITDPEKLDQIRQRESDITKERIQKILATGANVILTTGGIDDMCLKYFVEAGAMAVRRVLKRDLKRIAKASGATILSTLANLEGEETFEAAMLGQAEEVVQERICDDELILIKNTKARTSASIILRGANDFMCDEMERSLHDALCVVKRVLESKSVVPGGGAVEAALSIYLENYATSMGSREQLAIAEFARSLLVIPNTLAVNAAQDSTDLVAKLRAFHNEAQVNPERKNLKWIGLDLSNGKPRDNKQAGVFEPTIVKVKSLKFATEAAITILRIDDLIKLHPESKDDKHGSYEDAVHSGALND
HSPA9, sequence (P38646 47-679): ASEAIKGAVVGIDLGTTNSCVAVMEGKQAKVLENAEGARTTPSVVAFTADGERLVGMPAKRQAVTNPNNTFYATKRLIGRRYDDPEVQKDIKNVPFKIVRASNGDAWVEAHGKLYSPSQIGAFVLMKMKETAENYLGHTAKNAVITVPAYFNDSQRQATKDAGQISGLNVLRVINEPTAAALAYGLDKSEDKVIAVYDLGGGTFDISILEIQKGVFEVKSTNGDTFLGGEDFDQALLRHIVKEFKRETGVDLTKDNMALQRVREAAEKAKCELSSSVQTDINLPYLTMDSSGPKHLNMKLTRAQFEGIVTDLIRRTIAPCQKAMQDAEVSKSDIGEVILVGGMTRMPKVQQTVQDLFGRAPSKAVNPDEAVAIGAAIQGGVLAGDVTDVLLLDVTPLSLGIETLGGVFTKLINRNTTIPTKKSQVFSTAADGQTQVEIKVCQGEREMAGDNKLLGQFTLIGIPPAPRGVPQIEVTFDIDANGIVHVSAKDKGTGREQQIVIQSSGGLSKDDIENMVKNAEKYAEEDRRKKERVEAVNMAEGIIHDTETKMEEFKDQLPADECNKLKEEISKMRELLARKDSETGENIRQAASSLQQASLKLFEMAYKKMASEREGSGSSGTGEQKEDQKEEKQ
TPM4, sequence (P67936 whole entry): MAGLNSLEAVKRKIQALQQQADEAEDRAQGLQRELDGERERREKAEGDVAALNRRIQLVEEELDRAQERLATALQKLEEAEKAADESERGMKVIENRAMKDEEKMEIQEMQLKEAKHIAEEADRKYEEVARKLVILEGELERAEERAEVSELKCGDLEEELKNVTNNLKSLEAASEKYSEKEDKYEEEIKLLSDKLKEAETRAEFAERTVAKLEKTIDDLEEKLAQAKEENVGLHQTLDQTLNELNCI
MAPK11, sequence (Q15759 whole entry): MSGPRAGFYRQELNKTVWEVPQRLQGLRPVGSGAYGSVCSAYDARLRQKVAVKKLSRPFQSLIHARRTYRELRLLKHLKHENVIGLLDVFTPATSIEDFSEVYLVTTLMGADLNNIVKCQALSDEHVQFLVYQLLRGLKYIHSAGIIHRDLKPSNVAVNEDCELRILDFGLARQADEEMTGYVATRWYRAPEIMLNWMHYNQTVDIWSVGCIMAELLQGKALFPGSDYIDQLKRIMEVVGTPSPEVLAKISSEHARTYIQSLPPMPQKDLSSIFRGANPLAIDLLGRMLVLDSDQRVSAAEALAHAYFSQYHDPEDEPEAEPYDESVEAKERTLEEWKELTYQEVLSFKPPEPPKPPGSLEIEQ

## Cc1ccc(C(=O)Nc2ccc(CN3CCN(CCCN)CC3)c(C(F)(F)F)c2)cc1C#Cc1cnc2cccnn12 [c-ponatinib]
HSPA9; + free ponatinib
  Av. SC comp.: 0
  Total SC comp.: 0
HSPA9; no competitor
  Av. SC: 3.25
  Total SC: 13
MAPK11; + free ponatinib
  Av. SC comp.: 0
  Total SC comp.: 0
MAPK11; no competitor
  Av. SC: 3
  Total SC: 12
RIPK1; + free ponatinib
  Av. SC comp.: 0
  Total SC comp.: 0
RIPK1; no competitor
  Av. SC: 1.5
  Total SC: 6
TCP1; + free ponatinib
  Av. SC comp.: 1.5
  Total SC comp.: 6
TCP1; no competitor
  Av. SC: 5
  Total SC: 20
TPM4; + free ponatinib
  Av. SC comp.: 0.25
  Total SC comp.: 1
TPM4; no competitor
  Av. SC: 3.5
  Total SC: 14
UNC119; + free ponatinib
  Av. SC comp.: 0
  Total SC comp.: 0
UNC119; no competitor
  Av. SC: 20.5
  Total SC: 82
YWHAZ; + free ponatinib
  Av. SC comp.: 2.5
  Total SC comp.: 10
YWHAZ; no competitor
  Av. SC: 10.5
  Total SC: 42
